Converted amounts (≈) assume the structure as drawn.
Experiments:
xanthine oxidase = xanthine oxidase (Homo sapiens, UniProt P47989); test: Test on xanthine oxidase inhibition; assay type: biochemical
Description: In this experiment, xanthine was used as a substrate and xanthine oxidase was used as an enzyme to perform an enzyme-substrate reaction.
250 μl of 50 mM potassium phosphate buffer (pH 7.5), 385 μl of Angelica gigas Nakai extract solution (prepared by dilution with 50 mM potassium phosphate buffer (pH 7.5) until the final concentrations of decursin and decursinol angelate become 1, 5, 10, 17.5, 20, 50 μg/ml), and 330 μl of xanthine solution were mixed with each other to prepare a reaction solution.
35 μl of xanthine oxidase solution (final concentration of 0.4 U/ml) was added to the reaction solution, and reacted in a 37° C. incubator for 15 min. Then, absorbance (Ab) was measured at 295 nm.
Each reaction solution was also prepared using each Angelica gigas Nakai extract (each final concentration of decursin and decursinol angelate was 1, 5, 10, 17.5, 20, or 50 μg/ml) without addition of the xanthine oxidase solution. Further, in the absence of the Angelica gigas Nakai extract, each reaction solution was prepared with or without the xanthine oxidase solution. […]
A: a change in absorbance in the absence of composition (Absorbance with enzyme−Absorbance without enzyme)
B: a change in absorbance in the presence of composition (Absorbance with enzyme−Absorbance without enzyme)

Cox-2 = test: Inflammation inhibition in hepatocytes of gout-induced animal model (Cox-2 western blot of liver); assay type: in vivo; conditions: rat, 50 mg/kg oral for 3 days after potassium oxonate; compared to hyperuricemia control group (model control)
Description: In order to confirm the inhibitory effect of the Angelica gigas Nakai extract of the present invention on the inflammation-inducing enzyme Cox-2, the uricase inhibitor, potassium oxonate was administered to induce hyperuricemia.
As the experimental animal, 9-week old male sprague-dawley rats (250-280 g, Samtako, Inc.) were acclimated in a SPF chamber where the humidity and temperature were maintained at 50±5% and 24˜26° C. and feed and water were supplied ad libitum for 1 week, and then used for the experiment.
In the present experiment, the uricase inhibitor, potassium oxonate (150 mg/kg) was intraperitoneally administered one day before sample treatment, so as to induce hyperuricemia. The contents of uric acid before and after administration of potassium oxonate were measured and compared to each other, in order to confirm the hyperuricemia induction by administration of potassium oxonate.
Potassium oxonate was suspended in 0.5% sodium carboxymethylcellulose (CMC-Na, 0.5% CMC with 0.1 M sodium acetate (pH5)), and used. […]
After oral administration for 3 days, the experimental animals were fasted overnight, and then anesthetized with dry ice. […] 100 mg was dissected from the whole liver, and proteins were separated using a cell lysis buffer, and the protein concentration was measured by BCA protein assay. […]

xanthine oxidase, sequence (P47989 whole entry, species assumed): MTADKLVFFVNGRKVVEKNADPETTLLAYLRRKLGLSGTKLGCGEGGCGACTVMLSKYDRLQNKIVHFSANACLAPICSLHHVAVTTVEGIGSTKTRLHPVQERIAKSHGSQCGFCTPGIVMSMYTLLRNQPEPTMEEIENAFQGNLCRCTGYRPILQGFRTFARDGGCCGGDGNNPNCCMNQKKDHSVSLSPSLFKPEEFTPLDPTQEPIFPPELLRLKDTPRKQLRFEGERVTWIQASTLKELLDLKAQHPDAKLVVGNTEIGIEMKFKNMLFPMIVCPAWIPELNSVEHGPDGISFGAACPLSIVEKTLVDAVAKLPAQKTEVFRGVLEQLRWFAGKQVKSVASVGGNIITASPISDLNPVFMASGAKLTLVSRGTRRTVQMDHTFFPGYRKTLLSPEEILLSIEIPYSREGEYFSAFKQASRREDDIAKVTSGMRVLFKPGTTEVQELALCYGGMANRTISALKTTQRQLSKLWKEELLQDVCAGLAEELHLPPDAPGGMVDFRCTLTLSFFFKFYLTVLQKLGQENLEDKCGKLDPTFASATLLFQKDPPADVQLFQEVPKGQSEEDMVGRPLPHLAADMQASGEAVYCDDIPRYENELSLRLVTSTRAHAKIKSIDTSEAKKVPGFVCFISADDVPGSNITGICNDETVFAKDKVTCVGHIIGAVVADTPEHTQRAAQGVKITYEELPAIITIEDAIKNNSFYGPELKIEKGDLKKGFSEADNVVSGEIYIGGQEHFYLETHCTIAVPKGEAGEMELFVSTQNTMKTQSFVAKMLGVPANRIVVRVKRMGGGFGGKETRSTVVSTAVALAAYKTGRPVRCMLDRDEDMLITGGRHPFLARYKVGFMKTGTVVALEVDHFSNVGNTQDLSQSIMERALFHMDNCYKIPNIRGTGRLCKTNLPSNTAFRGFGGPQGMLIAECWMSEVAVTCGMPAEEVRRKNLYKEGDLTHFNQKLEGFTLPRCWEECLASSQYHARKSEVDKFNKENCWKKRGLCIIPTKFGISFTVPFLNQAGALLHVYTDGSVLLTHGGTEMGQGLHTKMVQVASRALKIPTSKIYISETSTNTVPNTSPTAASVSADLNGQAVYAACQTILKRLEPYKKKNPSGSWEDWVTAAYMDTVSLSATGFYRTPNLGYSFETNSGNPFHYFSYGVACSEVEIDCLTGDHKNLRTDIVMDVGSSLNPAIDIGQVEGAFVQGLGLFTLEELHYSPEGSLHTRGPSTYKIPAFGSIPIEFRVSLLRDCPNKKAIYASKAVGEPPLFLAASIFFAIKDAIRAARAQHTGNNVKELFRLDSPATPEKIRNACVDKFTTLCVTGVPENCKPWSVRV

Oc1ncnc2[nH]ncc12 [allopurinol]
IC90 (xanthine oxidase): 38 µg/mL (≈ 279 µM) | Cox-2 expression in the hepatic tissue (Cox-2): adversely increased

Reference: patent US20110262567A1, “COMPOSITION FOR TREATING GOUT, CONTAINING ANGELICA GIGAS EXTRACT HAVING A XANTHINE OXIDASE-INHIBITING EFFECT AND AN INFLAMMATION-INDUCING ENZYME-INHIBITING EFFECT” (KOREA BIO HEALTH CO., LTD., priority 2008, published 2011)
